Consider 15 compounds from paper PMC4716659 (European journal of medicinal chemistry, 2015).

Data set [1] concerns methicillin-resistant Staphylococcus aureus (MRSA) ATCC 43300. Kind of data set: MIC, broth microdilution. The note with it: MRSA ATCC 43300. The data set is classed as cell-based. In general terms: In broth dilution the organism is exposed to a series of concentrations in liquid medium.
Data set [2] concerns S. aureus NRS107 (MRSA). Kind of data set: MIC, broth microdilution. The data set is classed as cell-based, Staphylococcus aureus. The note with it: Staphylococcus aureus, MRSA|NRS107.
Data set [3] concerns S. aureus NRS119 (MRSA). Kind of data set: MIC, broth microdilution. The format is cell-based, Staphylococcus aureus. The note with it: Staphylococcus aureus, MRSA|NRS119.
Data set [4] relates to S. aureus NRS194 (MRSA). Kind of data set: MIC, broth microdilution. The format is cell-based, Staphylococcus aureus. Conditions: Staphylococcus aureus, MRSA|NRS194.
Data set [5] deals with S. aureus USA300 (MRSA). Put plainly: MIC, broth microdilution. The data set is classed as cell-based, Staphylococcus aureus. The note with it: Staphylococcus aureus, MRSA|USA300.
Data set [6] concerns S. aureus USA 400 (MRSA). Kind of data set: MIC, broth microdilution. The data set is classed as cell-based, Staphylococcus aureus. The note with it: Staphylococcus aureus, MRSA|USA400.
For data set [7], the system named is S. aureus USA500 (MRSA). Kind of data set: MIC, broth microdilution. The format is cell-based, Staphylococcus aureus. Conditions: Staphylococcus aureus, MRSA|USA500.
The test system of data set [8] is S. aureus NRS1 (VISA). Kind of data set: MIC, broth microdilution. The data set is classed as cell-based, Staphylococcus aureus. Conditions: Staphylococcus aureus, NRS1|VISA.
The subject of data set [9] is S. aureus NRS19 (VISA). Put plainly: MIC, broth microdilution. The format is cell-based, Staphylococcus aureus. Conditions: Staphylococcus aureus, NRS19|VISA.
Data set [10] concerns S. aureus NRS37 (VISA). Put plainly: MIC, broth microdilution. The format is cell-based, Staphylococcus aureus. The note with it: Staphylococcus aureus, NRS37|VISA.
Data set [11] deals with S. aureus VRS1 (VRSA). Put plainly: MIC, broth microdilution. The data set is classed as cell-based, Staphylococcus aureus. The note with it: Staphylococcus aureus, VRSA.
The test system of data set [12] is S. aureus VRS4 (VRSA). Kind of data set: MIC, broth microdilution. The note with it: Staphylococcus aureus, VRSA. The format is cell-based, Staphylococcus aureus.
The test system of data set [13] is S. aureus VRS5 (VRSA). Kind of data set: MIC, broth microdilution. The note with it: Staphylococcus aureus, VRSA. The format is cell-based, Staphylococcus aureus.
Data set [14] concerns S. aureus NRS107 (MRSA). Put plainly: MBC, plating onto TSA. The note with it: Staphylococcus aureus, MRSA|NRS107. The data set is classed as cell-based, Staphylococcus aureus.
Data set [15] concerns S. aureus NRS119 (MRSA). Put plainly: MBC, plating onto TSA. The data set is classed as cell-based, Staphylococcus aureus. Conditions: Staphylococcus aureus, MRSA|NRS119.
The subject of data set [16] is S. aureus NRS194 (MRSA). Put plainly: MBC, plating onto TSA. The format is cell-based, Staphylococcus aureus. The note with it: Staphylococcus aureus, MRSA|NRS194.
The test system of data set [17] is S. aureus USA300 (MRSA). Kind of data set: MBC, plating onto TSA. The format is cell-based, Staphylococcus aureus. The note with it: Staphylococcus aureus, MRSA|USA300.
In data set [18] the test system is S. aureus USA 400 (MRSA). Kind of data set: MBC, plating onto TSA. The data set is classed as cell-based, Staphylococcus aureus. Conditions: Staphylococcus aureus, MRSA|USA400.
Data set [19] has as its system S. aureus USA500 (MRSA). Kind of data set: MBC, plating onto TSA. Conditions: Staphylococcus aureus, MRSA|USA500. The format is cell-based, Staphylococcus aureus.
Data set [20] has as its system S. aureus ATCC 43300 (MRSA). Put plainly: MBC, plating onto TSA. The data set is classed as cell-based, Staphylococcus aureus. Conditions: Staphylococcus aureus, ATCC43300|MRSA.
The test system of data set [21] is S. aureus NRS1 (VISA). Put plainly: MBC, plating onto TSA. The data set is classed as cell-based, Staphylococcus aureus. The note with it: Staphylococcus aureus, NRS1|VISA.
The test system of data set [22] is S. aureus NRS19 (VISA). Put plainly: MBC, plating onto TSA. The format is cell-based, Staphylococcus aureus. The note with it: Staphylococcus aureus, NRS19|VISA.
Data set [23] deals with S. aureus NRS37 (VISA). Kind of data set: MBC, plating onto TSA. The note with it: Staphylococcus aureus, NRS37|VISA. The data set is classed as cell-based, Staphylococcus aureus.
Data set [24] deals with S. aureus VRS1 (VRSA). Put plainly: MBC, plating onto TSA. The note with it: Staphylococcus aureus, VRSA. The format is cell-based, Staphylococcus aureus.
Data set [25] has as its system S. aureus VRS4 (VRSA). Kind of data set: MBC, plating onto TSA. The data set is classed as cell-based, Staphylococcus aureus. Conditions: Staphylococcus aureus, VRSA.
Data set [26] deals with S. aureus VRS5 (VRSA). Kind of data set: MBC, plating onto TSA. The format is cell-based, Staphylococcus aureus. The note with it: Staphylococcus aureus, VRSA.
Data set [27] relates to two VISA isolates. Kind of data set: MIC against VISA isolates. The format is cell-based. Conditions: Staphylococcus aureus.
Data set [28] deals with human embryonic kidney (HEK293) cell line. Put plainly: In vitro cytotoxicity, MTS assay. Conditions: 40 μg/mL.
The mark [29] stands for this setting: Staphylococcus aureus, ATCC43300|MRSA.

Values after ≈ are worked out from the molar mass of the structure shown. “Also recorded” adds a separate entry of the source. Bounds are passed on as bounds.

Broadly, the MIC is the smallest concentration in the dilution series that meets the test's criterion for growth inhibition. Low values mean greater potency, high ones weaker potency. On to `CC(=O)c1sc(-c2ccc(-c3ccc(F)cc3)cc2)nc1C` [21b, 1-(2-(4′-Fluoro-[1,1′-biphenyl]-4-yl)-4-methylthiazol-5-yl)ethanone], for which, in data set [1] (setting [29]), the MIC was over 39.8 µg/mL.
Compound `CC(=O)c1sc(-c2ccc(-c3ccc(C(F)(F)F)cc3)cc2)nc1C` [21c, 1-(4-Methyl-2-(4′-(trifluoromethyl)-[1,1′-biphenyl]-4-yl)thiazol-5-yl)ethanone] yielded an MIC in data set [1] (setting [29]) of over 46.2 µg/mL.
In the case of `[H]/N=C(\N)NN=C(C)c1sc(-c2ccc(-c3ccc(O)cc3)cc2)nc1C` [22a, (E)-2-(1-(2-(4′-Hydroxy-[1,1′-biphenyl]-4-yl)-4-methylthiazol-5-yl)ethylidene)hydrazinecarboximidamide], the figures for the MIC in [1] and in data set [1] (setting [29]) were over 46.7 µg/mL and over 36.9 µg/mL, respectively.
The MBC is the smallest concentration meeting the test's criterion for killing. A lower MBC goes with greater bactericidal potency. For the compound `[H]/N=C(\N)NN=C(C)c1sc(-c2ccc(-c3ccc(F)cc3)cc2)nc1C` [22b, (E)-2-(1-(2-(4′-Fluoro-[1,1′-biphenyl]-4-yl)-4-methylthiazol-5-yl)ethylidene)hydrazinecarboximidamide], the minimum inhibitory concentration (MIC) in data set [2] turned out to be 2.9 µg/mL (≈ 7.89 µM); in data set [3], 5.9 µg/mL (≈ 16.1 µM); in data set [4] it was 5.9 µg/mL (≈ 16.1 µM); in [5], 5.9 µg/mL (≈ 16.1 µM); in data set [6], 5.9 µg/mL (≈ 16.1 µM); in [7], 5.9 µg/mL (≈ 16.1 µM). The MIC in data set [1] (setting [29]) worked out at 5.9 µg/mL (≈ 16.1 µM); in data set [8], 2.9 µg/mL (≈ 7.89 µM); in data set [9], 5.9 µg/mL (≈ 16.1 µM); in [10] it was 2.9 µg/mL (≈ 7.89 µM); in data set [11] it was 2.9 µg/mL (≈ 7.89 µM); in data set [12], 2.9 µg/mL (≈ 7.89 µM). The results for the MIC in data set [13] and in data set [27] were 2.9 µg/mL (≈ 7.89 µM) and 2.9 to 5.9 µg/mL (≈ 7.89 to 16.1 µM), respectively. Also, the minimum bactericidal concentration (MBC) in data set [14] was determined as 5.9 µg/mL (≈ 16.1 µM); in [15] it was 11.7 µg/mL (≈ 31.8 µM); in data set [16], 11.7 µg/mL (≈ 31.8 µM); in [17], 5.9 µg/mL (≈ 16.1 µM); in [18] it was 11.7 µg/mL (≈ 31.8 µM); in data set [19], 5.9 µg/mL (≈ 16.1 µM). In addition, the MBC in data set [20] came out at 5.9 µg/mL (≈ 16.1 µM); in data set [21] it was 2.9 µg/mL (≈ 7.89 µM); in data set [22], 5.9 µg/mL (≈ 16.1 µM); in data set [23], 5.9 µg/mL (≈ 16.1 µM); in [24], 2.9 µg/mL (≈ 7.89 µM); in data set [25] it was 2.9 µg/mL (≈ 7.89 µM). This compound registered a minimal bactericidal concentration (MBC) in data set [26] of 2.9 µg/mL (≈ 7.89 µM). The “toxicity to mammalian cells (MTS assay)” value in [28] was “toxic”.
Take `[H]/N=C(\N)NN=C(C)c1sc(-c2ccc(-c3ccc(C(C)=O)cc3)cc2)nc1C` [22d, (E)-2-(1-(2-(4′-Acetyl-[1,1′-biphenyl]-4-yl)-4-methylthiazol-5-yl)ethylidene)hydrazinecarboximidamide]: the MIC in data set [2], in data set [3], in data set [4], in data set [5], in data set [6] and in data set [7] was 6.3 µg/mL (≈ 16.1 µM) each time. The MIC in [1] (setting [29]) worked out at 6.3 µg/mL (≈ 16.1 µM); in data set [8], 6.3 µg/mL (≈ 16.1 µM); in data set [9] it was 12.5 µg/mL (≈ 31.9 µM); in [10], 3.1 µg/mL (≈ 7.92 µM); in data set [11], 3.1 µg/mL (≈ 7.92 µM); in data set [12], 1.6 µg/mL (≈ 4.09 µM). Moreover, in [13], the minimum inhibitory concentration (MIC) was determined as 6.3 µg/mL (≈ 16.1 µM). The minimal bactericidal concentration (MBC) was 12.5 µg/mL (≈ 31.9 µM) in data set [14]; 12.5 µg/mL (≈ 31.9 µM) in [15]; 6.3 µg/mL (≈ 16.1 µM) in data set [16]; 6.3 µg/mL (≈ 16.1 µM) in data set [17]; 6.3 µg/mL (≈ 16.1 µM) in data set [18]; 6.3 µg/mL (≈ 16.1 µM) in data set [19]. For the same compound, the MBC in data set [20] was 6.3 µg/mL (≈ 16.1 µM); in data set [21], 6.3 µg/mL (≈ 16.1 µM); in [22], 12.5 µg/mL (≈ 31.9 µM); in data set [23], 6.3 µg/mL (≈ 16.1 µM); in data set [24], 3.1 µg/mL (≈ 7.92 µM); in data set [25], 3.1 µg/mL (≈ 7.92 µM). In data set [26], this compound gave a minimal bactericidal concentration (MBC) of 6.3 µg/mL (≈ 16.1 µM). Besides, the “toxicity to mammalian cells (MTS assay)” value in data set [28] is given as “not toxic; also recorded: improved toxicity profile”.
In [1] (setting [29]), `[H]/N=C(\N)NN=C(C)c1sc(-c2ccc(C#CCCCCCCC)cc2)nc1C` [compound 7, (E)-2-(1-(4-Methyl-2-[4-(non-1-yn-1-yl)phenyl]thiazol-5-yl)ethylidene)hydrazinecarboximidamide] yielded an MIC of 12.6 µg/mL (≈ 31.9 µM).
Regarding `CCCCc1ccc(-c2nc(C)c(C(N)=O)s2)cc1` [compound 9, 2-(4-Butylphenyl)-4-methylthiazole-5-carboxamide], in data set [1] (setting [29]), the MIC is over 35.1 µg/mL.
In data set [1] (setting [29]), `CCCCc1ccc(-c2nc(C)c(C(=O)NC(=N)NC(=N)N)s2)cc1` [compound 10, 2-(4-Butylphenyl)-N-(N-carbamimidoylcarbamimidoyl)-4-methylthiazole-5-carboxamide] gave a minimum inhibitory concentration (MIC) of over 45.8 µg/mL.
As to `CCCCc1ccc(-c2nc(C)c(C(=O)NNC(=N)N)s2)cc1` [compound 11, 2-(2-(4-Butylphenyl)-4-methylthiazole-5-carbonyl)hydrazinecarboximidamide], the MIC in data set [1] (setting [29]) was over 42.4 µg/mL.
Consider `CCCCc1ccc(-c2nc(C)c(C(=O)NC[C@@H](O)CO)s2)cc1` [compound 12, (R)-2-(4-Butylphenyl)-N-(2,3-dihydroxypropyl)-4methylthiazole-5-carboxamide], for which the minimal inhibitory concentration (MIC) in data set [1] (setting [29]) stood at 44.5 µg/mL (≈ 128 µM).
The same measure, in the same setting: for `CCCCc1ccc(-c2nc(C)c(C(=O)NCN(C)C)s2)cc1` [compound 13, 2-(4-Butylphenyl)-N-[(dimethylamino)methyl]-4-methylthiazole-5-carboxamide] the value was 44.2 µg/mL (≈ 133 µM).
For `CCCCc1ccc(-c2nc(C)c(/C(N)=N/O)s2)cc1` [compound 15, (Z)-2-(4-Butylphenyl)-N′-hydroxy-4-methylthiazole-5-carboximidamide], the MIC in [1] is over 37.0 µg/mL; in data set [1] (setting [29]), over 35.1 µg/mL.
`CCCCc1ccc(-c2nc(C)c(-c3nnn[nH]3)s2)cc1` [compound 16, 2-(4-Butylphenyl)-4-methyl-5-(1H-tetrazol-5-yl)thiazole]: the MIC is over 38.3 µg/mL in [1] and over 35.1 µg/mL in [1] (setting [29]).
In data set [1], `[H]/N=C(\N)NN=C(C)c1sc(-c2ccc(N)cc2)nc1C` [compound 19, (E)-2-(1-(4-Methyl-2-(4-aminophenyl)thiazol-5-yl)ethylidene) hydrazinecarboximidamide] had a minimum inhibitory concentration (MIC) of over 36.9 µg/mL.
As to `CC(=O)c1sc(-c2ccc(-c3cccc4ccccc34)cc2)nc1C` [compound 24, 1-(4-Methyl-2-(4-(naphthalen-1-yl)phenyl)thiazol-5-yl)ethanone], the MIC in data set [1] (setting [29]) was over 43.9 µg/mL.
